Where two headings read alike, the source gives them in different places.
Columns and labels:
[1] = tested on: Acute Bacterial Skin and Skin Structure Infections (ABSSSI); assay: Phase 2b clinical trial in ABSSSI: Investigators' Global Assessment of Cure; type: in vivo, human; conditions: for Response Rate, Investigators' Global Assessment of Cure: ITT; for Response Rate, Investigators' Global Assessment of Cure / Percent Clinical Cure (ITT): delafloxacin 300 mg BID, Zyvox 600 mg BID, vancomycin 1,000 to 2,000 mg BID, comparators with and without aztreonam; for Percent Clinical Cure (ITT): Investigators' Global Assessment of Cure; for Clinical activity with increased patient weight: Phase 2b data by weight/BMI
From the text: (§1) The term “cure” or “Investigators' Global Assessment of Cure” as used herein refers to complete resolution of all signs and symptoms at the follow-up visit.

Confirmed MRSA = assay: Phase 2b clinical trial: Investigators' Global Assessment of Cure in Patients with Confirmed MRSA; type: in vivo, human; conditions: comparators with and without aztreonam; for Response Rate, Investigators' Global Assessment of Cure in Patients with Confirmed MRSA: MITT; for Percent Clinical Cure (MITT): patients with confirmed MRSA
From the text: as §1

[2] = tested on: Acute Bacterial Skin and Skin Structure Infections (ABSSSI); assay: Phase 2b clinical trial: Objective Endpoint at 48 to 72 hours (cessation of lesion spread and absence or resolution of fever); type: in vivo, human; conditions: comparators with and without aztreonam; for Percent Cessation of Spread of Erythema and Absence of Fever at 48 to 72 Hours: secondary endpoint
[3] = human, in vivo
[4] = Phase 2b clinical trial: adverse events; conditions: for Overall adverse event rates: across the Phase 2b study; for Specific limiting toxicity: human, in vivo
[5] = tested on: Acute Bacterial Skin and Skin Structure Infections (ABSSSI); assay: Phase 2b clinical trial: reduction in the size of the lesion at 48 to 72 hours; type: in vivo, human

SMILES | Response Rate, Investigators' Global Assessment of Cure [1] | Percent Clinical Cure (ITT) [1] [%] | Clinical activity with increased patient weight [1] | Response Rate, Investigators' Global Assessment of Cure in Patients with Confirmed MRSA (Confirmed MRSA) | Percent Clinical Cure (MITT) (Confirmed MRSA) [%] | Response Rate, Objective Endpoint at 48 to 72 hours [2] | Percent Cessation of Spread of Erythema and Absence of Fever at 48 to 72 Hours [2] [%] | Leading adverse event ([4]; Phase 2b study) | Most common specific adverse event ([4]; Phase 2b study) | Overall adverse event rates [4] [%] | Specific limiting toxicity [4] | also measured
CN[C@H](CC(C)C)C(=O)N[C@H]1C(=O)N[C@@H](CC(N)=O)C(=O)N[C@H]2C(=O)N[C@H]3C(=O)N[C@H](C(=O)N[C@H](C(=O)O)c4cc(O)cc(O)c4-c4cc3ccc4O)[C@H](O)c3ccc(c(Cl)c3)Oc3cc2cc(c3O[C@@H]2O[C@H](CO)[C@@H](O)[C@H](O)[C@H]2O[C@H]2C[C@](C)(N)[C@H](O)[C@H](C)O2)Oc2ccc(cc2Cl)[C@H]1O [Vancomycin] | 53/98 | 54.1 | decline | 21/32 | 65.6 | 69/95 | 72.6 | disorders of the skin | pruritus | 65 | – | Percent Cessation of Spread of Erythema and Absence of Fever at 48 to 72 Hours ([2]; listed as vancomycin): ~73%; Specific limiting toxicity [3]: kidney; Patients who experienced renal issues ([4]; Phase 2b study arm): three; Renal failures ([4]; Phase 2b study arm, among the renal issues): two
Nc1nc(-n2cc(C(=O)O)c(=O)c3cc(F)c(N4CC(O)C4)c(Cl)c32)c(F)cc1F [Delafloxacin, 1-(6-amino-3,5-difluoro-2-pyridinyl)-8-chloro-6-fluoro-1,4-dihydro-7-(3-hydroxy-1-azetidinyl)-4-oxo-3-quinolinecarboxylic acid] | 57/81 | 70.4 | maintained | 19/29 | 65.56 | 61/78 | 78.2 | gastrointestinal, or GI, disorder | mild to moderate diarrhea | 74 | no specific limiting toxicity | Efficacy compared to vancomycin, primary endpoint Investigators' Global Assessment of Cure ([1]; 95% Confidence Interval −30.3%, −2.3%, p=0.031): statistically significant efficacy advantage; Percent Cessation of Spread of Erythema and Absence of Fever at 48 to 72 Hours ([2]; listed as delafloxacin): approximately 78%; Percentage of patients with a 30% or greater reduction in the size of the lesion, versus comparators [5]: greater percentage of patients; Evidence for toxicities common in the fluoroquinolone class (phototoxicity, elevated liver enzymes, dysglycemia, QT prolongation) ([4]; Phase 2b study): did not demonstrate evidence
CC(=O)NC[C@H]1CN(c2ccc(N3CCOCC3)c(F)c2)C(=O)O1 [Zyvox, N-[[(5S)-3-[3-fluoro-4-(4-morpholinyl)phenyl]-2-oxo-5-oxazolidinyl]methyl]acetamide] | 50/77 | 84.9 | decline | 21/34 | 61.8 | 56/75 | 74.7 | GI disorder | nausea | 72 | bone marrow | Percent Cessation of Spread of Erythema and Absence of Fever at 48 to 72 Hours ([2]; listed as linezolid): ~75%; Subjects who experienced thrombocytopenia ([4]; Phase 2b study arm): two
